In assay [1] the test system is prostaglandin generation in macrophagocytes collected from the abdominal cavity of a mouse. The assay is described as follows: Prostaglandin generation inhibition in LPS-treated macrophagocytes (ELISA). In kind it is cell-based. The conditions noted are these: 100 μl of ginsenoside F2. As for the experimental part: The inflammatory effect is evaluated in terms of the inhibitory effect on prostaglandin generation. Ginsenoside F2 is used to measure the effect on macrophagocytes. Firstly, macrophagocytes collected from the abdominal cavity of a mouse are treated with aspirin to have the final concentration of 500 µM, causing irreversible inhibition on the activity of cyclooxygenase (COX) remaining in the macrophagocytes. Then, 100 μl of the suspension is put in each well of a 96-well culture plate and cultured in an incubator under the conditions of 5% CO2 and 37° C. for 2 hours to immobilize the macrophagocytes on the surface of the container. Subsequently, the immobilized macrophagocytes are washed with PBS three times and used in the inflammatory improvement test. […] Then, the macrophagocytes are treated with 100 μl of ginsenoside F2, and the isolated prostaglandin is quantitatively analyzed by way of ELISA (Enzyme-Linked ImmunoSorbent Assey).
In this regard, the prostaglandin generation inhibitory activity of the ginsenoside F2 is determined by the reduced amount of prostaglandin generated in the LPS-treated group in comparison with the case of the control in terms of the percentage amount of the prostaglandin decreased by treatment with LPS and the sample, while the difference in the amount of the generated prostaglandin between the LPS-treated group and the control group is set to 100%.

A further assay concerns interleukin-8 (IL-8). The assay is described as follows: IL-8 generation inhibition in normal human skin keratinocytes (ELISA). To be noted: stimulation with PGSA / LPS, 24 hours. It is filed as cell-based. As for the experimental part: One day before the testing, normal human skin keratinocytes (NHEK) purchased from Lonza are injected into a 96-well plate at a rate of 5×10^4 cells/well and cultured in an incubator under conditions of 5% CO2 and 37° C. for 24 hours. After 24 hours, the culture plate is washed with PBS twice, and the used culture medium is replaced with a serum-free keratinocyte basement medium. Ginsenoside F2 is injected into each well according to the concentration of Table 24 and allowed to react for 30 minutes. Then, the keratinocytes are treated separately with 10 μg/ml of PGSA, 50 μg/ml of PGSA, and a mixture of PGSA (50 μg/ml) and LPS (1 μg/ml). In this regard, PGSA (peptidoglycan from S. aureus) is stapylococcus-derived peptidoglycan that is a principal component of the cell membrane of gram-positive (+) bacteria, and the components of the cell membrane of bacteria are known to cause inflammation. Particularly, it is reported that about 90% of patients with atopic dermatitis are susceptible to secondary infection due to staphylococcus. LPS (lipopolysaccharide) is a principal component of the cell membrane of gram-negative (−) bacteria and reportedly a main cause of inflammation. After the keratinocytes are cultured in an incubator under conditions of 5% CO2 and 37° C. for 24 hours, the culture medium is collected and subjected to ELISA for interleukin-8 (IL-8). The ELISA is carried out according to the testing method as instructed by the manufacturer (BD Science).

Another assay has as its system Human keratinocytes. Description: Promotion of keratinocyte differentiation (cornified envelope, absorbance 340 nm). It is filed as cell-based. To be noted: ginsenoside 5 ppm, 5 days; low calcium negative control = 100. As for the experimental part:
The quantity of CE (Cornified Envelop) generated during differentiation of keratinocytes is measured in terms of absorbance in order to evaluate the ginsenoside F2 in regards to the effect of promoting differentiation of keratinocytes.
Human keratinocytes isolated from the epidermis of a newborn baby and subjected to a primary cultivation are immobilized in the bottom of a cultivation flask, treated with ginsenoside F2 applied to the culture medium to a concentration of 5 ppm, and cultured for 5 days until the keratinocytes grow to take up about 70 to 80% of the bottom area. In this regard, the negative control is the group treated with low calcium (0.03 mM), while the positive control is the group treated with high calcium (1.2 mM). Then, the cultured keratinocytes are harvested, washed with phosphate-buffered saline (PBS), treated with a 10 mM tris-HCl buffer solution (pH 7.4) containing 2% sodium dodecyl sulfate (SDS) and 20 mM dithiothreitol (DTT), and then subjected to sonication, boiling, and centrifugal isolation. The precipitation is suspended in 1 mL of PBS to measure the absorbance at 340 nm. Apart from this process, a part of the solution after sonication is collected and measured in regards to the protein content, which is determined as a reference in evaluating the degree of differentiation.

The next assay deals with 3T3-L1 cells. The assay is described as follows: Lipogenesis inhibition in 3T3-L1 cells (Sudan III dyeing). In kind it is cell-based, mouse. To be noted: caffeine 50 μM; visual evaluation of fat accumulation. As for the experimental part:
The mouse fibroblast cell line, 3T3-L1 cells are immobilized in a 6-well culture plate filled with Dulbecco's modified eagle's medium (DMEM) (GIBCO BRL, Life Technologies, Inc.) containing 10% fetal bovine serum (FBS) at an amount of 1×10^5 cells/well. After 2 days, the used medium is replaced with a new DMEM (containing 10% FBS) medium to culture the cells for 2 days. […] After 5 days, the used DMEM medium is replaced with a normal medium (DMEM containing 10% FBS). The cells are cultured and observed until they are morphologically changed into fat cells. In order to evaluate the ginsenoside F2 in regards to the inhibitory effect on the fat accumulation in the fat cells, the completely differentiated 3T3-L1 fat cells are dyed with Sudan III ([…], Sigma-Aldrich). The fat cells are immobilized with 4% para-formaldehyde (pH 7.2) at the room temperature in a phosphate buffer solution. The fat cells are washed with phosphate-buffered saline (PBS) and then dyed with Sudan III. The picture of the fat cells is taken for visual evaluation. The control uses a medium using neither a test substance nor a comparative substance. The comparative control group is treated with 50 μM caffeine. The fat accumulation inhibitory ability is evaluated based on the degree of dying. The degree of dying is graded +++, ++, +, and - in the decreasing order.

Take `CC(C)=CCC[C@](C)(O[C@@H]1O[C@H](CO)[C@@H](O)[C@H](O)[C@H]1O)[C@H]1CC[C@]2(C)[C@@H]1[C@H](O)C[C@@H]1[C@@]3(C)CC[C@H](O[C@@H]4O[C@H](CO)[C@@H](O)[C@H](O)[C@H]4O)C(C)(C)[C@@H]3CC[C@]12C` [Ginsenoside F2, ginsenoside F2]: the “prostaglandin generation (Blank = 100%)” value in assay [1] is recorded as 24.2%. In addition, the “IL-8 secretion” value in the assay on interleukin-8 (IL-8) (5 ppm) amounted to 1209.66 pg/mL; with interleukin-8 (IL-8) (25 ppm), 1118.80 pg/mL; in the assay on interleukin-8 (IL-8) (50 ppm), 1110.29 pg/mL. In the assay with Human keratinocytes, the “Differentiation in keratinocytes (%)” value was 309%. Besides, the “Degree of Sudan III staining (visual grade)” value in the assay on 3T3-L1 cells was “−”.

In the case of `CC(C)=CCC[C@](C)(O[C@@H]1O[C@H](CO[C@@H]2O[C@H](CO)[C@@H](O)[C@H](O)[C@H]2O)[C@@H](O)[C@H](O)[C@H]1O)[C@H]1CC[C@]2(C)[C@@H]1[C@H](O)C[C@@H]1[C@@]3(C)CC[C@H](O[C@@H]4O[C@H](CO)[C@@H](O)[C@H](O)[C@H]4O[C@@H]4O[C@H](CO)[C@@H](O)[C@H](O)[C@H]4O)C(C)(C)[C@@H]3CC[C@]12C` [Ginsenoside Rb1], in the assay with Human keratinocytes, the “Differentiation in keratinocytes (%)” value is on record as 265%.

Source of the values: patent US20150352134A1, “COMPOSITION FOR TOPICAL SKIN APPLICATION CONTAINING GINSENOSIDE F2 DERIVED FROM HYDROPONIC GINSENG” (AMOREPACIFIC CORPORATION, priority 2012, published 2015).
